Data taken from ChEMBL document CHEMBL1145783, “Development of an orexin-2 receptor selective agonist, [Ala(11), D-Leu(15)]orexin-B” (Bioorg Med Chem Lett, 2003).

target: T1, Orexin receptor type 2 (Homo sapiens, UniProt O43614); assay: Agonist activity against human orexin 2 receptor; EC50; nM; assay type: functional
T1 sequence (O43614 whole entry): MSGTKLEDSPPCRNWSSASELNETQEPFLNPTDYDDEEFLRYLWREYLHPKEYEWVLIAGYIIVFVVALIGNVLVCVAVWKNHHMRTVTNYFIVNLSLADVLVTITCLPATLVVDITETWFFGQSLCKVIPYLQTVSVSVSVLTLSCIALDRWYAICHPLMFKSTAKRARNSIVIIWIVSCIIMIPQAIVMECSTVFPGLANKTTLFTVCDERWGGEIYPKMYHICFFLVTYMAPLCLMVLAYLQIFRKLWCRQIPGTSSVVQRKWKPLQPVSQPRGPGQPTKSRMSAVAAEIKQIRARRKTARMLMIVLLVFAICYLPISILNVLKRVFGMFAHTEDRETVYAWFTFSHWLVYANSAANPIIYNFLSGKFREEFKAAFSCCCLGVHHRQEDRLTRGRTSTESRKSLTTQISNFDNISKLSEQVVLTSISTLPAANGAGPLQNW

Molecule | EC50
CC[C@H](C)[C@H](NC(=O)[C@H](CC(C)C)NC(=O)[C@@H](NC(=O)[C@@H](N)CCSC)[C@@H](C)O)C(=O)NCC(=O)N[C@@H](C)C(=O)N[C@@H](C)C(=O)N[C@@H](Cc1c[nH]cn1)C(=O)N[C@@H](CC(N)=O)C(=O)NCC(=O)N[C@@H](CO)C(=O)N[C@@H](C)C(=O)N[C@@H](CCC(N)=O)C(=O)N[C@@H](CC(C)C)C(=O)N[C@@H](CC(C)C)C(=O)N[C@@H](CCCN=C(N)N)C(=O)N[C@@H](CCC(N)=O)C(=O)N[C@@H](CC(C)C)C(=O)N[C@@H](CCCN=C(N)N)C(=O)NCC(=O)N[C@@H](CCC(N)=O)C(=O)N[C@@H](CC(C)C)C(=O)NCC(=O)N1CCC[C@H]1C(=O)N1CCC[C@H]1C(=O)N[C@@H](C)C(=O)N[C@@H](CO)C(=O)N[C@@H](CCCN=C(N)N)C(N)=O | 0.18 nM
CC[C@H](C)[C@H](NC(=O)[C@H](CC(C)C)NC(=O)[C@@H](NC(=O)[C@H](N)CCSC)[C@@H](C)O)C(=O)NCC(=O)N[C@@H](C)C(=O)N[C@@H](C)C(=O)N[C@@H](Cc1c[nH]cn1)C(=O)N[C@@H](CC(N)=O)C(=O)NCC(=O)N[C@@H](CO)C(=O)N[C@@H](C)C(=O)N[C@@H](CCC(N)=O)C(=O)N[C@@H](CC(C)C)C(=O)N[C@@H](CC(C)C)C(=O)N[C@@H](CCCN=C(N)N)C(=O)N[C@@H](CCC(N)=O)C(=O)N[C@@H](CC(C)C)C(=O)N[C@@H](CCCN=C(N)N)C(=O)NCC(=O)N[C@@H](CCC(N)=O)C(=O)N[C@@H](CC(C)C)C(=O)NCC(=O)N1CCC[C@H]1C(=O)N1CCC[C@H]1C(=O)NCC(=O)N[C@@H](CO)C(=O)N[C@@H](CCCN=C(N)N)C(N)=O | > 290 nM
CC[C@H](C)[C@H](NC(=O)[C@H](CC(C)C)NC(=O)[C@@H](NC(=O)[C@@H](N)CCSC)[C@@H](C)O)C(=O)NCC(=O)N[C@@H](C)C(=O)N[C@@H](C)C(=O)N[C@@H](Cc1c[nH]cn1)C(=O)N[C@@H](CC(N)=O)C(=O)NCC(=O)N[C@@H](CO)C(=O)N[C@@H](C)C(=O)N[C@@H](CCC(N)=O)C(=O)N[C@@H](CC(C)C)C(=O)N[C@@H](CC(C)C)C(=O)N[C@@H](CCCN=C(N)N)C(=O)N[C@@H](CCC(N)=O)C(=O)N[C@@H](CC(C)C)C(=O)N[C@@H](CCCN=C(N)N)C(=O)NCC(=O)N[C@@H](CCC(N)=O)C(=O)N[C@H](CC(C)C)C(=O)NCC(=O)N1CCC[C@H]1C(=O)N1CCC[C@H]1C(=O)NCC(=O)N[C@@H](CO)C(=O)N[C@@H](CCCN=C(N)N)C(N)=O | 0.084 nM
H-MTLIGAAHNGSAQLLRQLAGQLGPPGSR-NH2 | 0.77 nM
H-MTAIGAAHNGSAQLLRQLRGQLGPPGSR-NH2 | 140 nM
CC[C@H](C)[C@H](NC(=O)[C@H](CC(C)C)NC(=O)[C@@H](NC(=O)[C@@H](N)CCSC)[C@@H](C)O)C(=O)NCC(=O)N[C@@H](C)C(=O)N[C@@H](C)C(=O)N[C@@H](Cc1c[nH]cn1)C(=O)N[C@@H](CC(N)=O)C(=O)NCC(=O)N[C@@H](CO)C(=O)N[C@@H](C)C(=O)N[C@@H](CCC(N)=O)C(=O)N[C@@H](CC(C)C)C(=O)N[C@@H](CC(C)C)C(=O)N[C@@H](CCCN=C(N)N)C(=O)N[C@@H](CCC(N)=O)C(=O)N[C@@H](CC(C)C)C(=O)N[C@@H](CCCN=C(N)N)C(=O)NCC(=O)N[C@@H](CCC(N)=O)C(=O)N[C@@H](CC(C)C)C(=O)N[C@H](C)C(=O)N1CCC[C@H]1C(=O)N1CCC[C@H]1C(=O)NCC(=O)N[C@@H](CO)C(=O)N[C@@H](CCCN=C(N)N)C(N)=O | 0.2 nM
CC[C@H](C)[C@H](NC(=O)[C@H](CC(C)C)NC(=O)[C@@H](NC(=O)[C@@H](N)CCSC)[C@@H](C)O)C(=O)NCC(=O)N[C@@H](C)C(=O)N[C@@H](C)C(=O)N[C@@H](Cc1c[nH]cn1)C(=O)N[C@@H](CC(N)=O)C(=O)NCC(=O)N[C@@H](CO)C(=O)N[C@@H](C)C(=O)N[C@@H](CCC(N)=O)C(=O)N[C@@H](CC(C)C)C(=O)N[C@@H](CC(C)C)C(=O)N[C@@H](CCCN=C(N)N)C(=O)N[C@@H](CCC(N)=O)C(=O)N[C@@H](CC(C)C)C(=O)N[C@H](CCCN=C(N)N)C(=O)NCC(=O)N[C@@H](CCC(N)=O)C(=O)N[C@@H](CC(C)C)C(=O)NCC(=O)N1CCC[C@H]1C(=O)N1CCC[C@H]1C(=O)NCC(=O)N[C@@H](CO)C(=O)N[C@@H](CCCN=C(N)N)C(N)=O | 0.87 nM
CC[C@H](C)[C@H](NC(=O)[C@H](CC(C)C)NC(=O)[C@@H](NC(=O)[C@@H](N)CCSC)[C@@H](C)O)C(=O)NCC(=O)N[C@@H](C)C(=O)N[C@@H](C)C(=O)N[C@@H](Cc1cnc[nH]1)C(=O)N[C@@H](CC(N)=O)C(=O)NCC(=O)N[C@@H](CO)C(=O)N[C@@H](C)C(=O)N[C@@H](CCC(N)=O)C(=O)N[C@@H](CC(C)C)C(=O)N[C@@H](CC(C)C)C(=O)N[C@@H](CCCN=C(N)N)C(=O)N[C@@H](CCC(N)=O)C(=O)N[C@@H](CC(C)C)C(=O)N[C@@H](CCCN=C(N)N)C(=O)NCC(=O)N[C@@H](CCC(N)=O)C(=O)N[C@@H](CC(C)C)C(=O)NCC(=O)N1CCC[C@H]1C(=O)N1CCC[C@H]1C(=O)N[C@H](C)C(=O)N[C@@H](CO)C(=O)N[C@@H](CCCN=C(N)N)C(N)=O | 0.16 nM
CC[C@H](C)[C@H](NC(=O)[C@H](CC(C)C)NC(=O)[C@@H](NC(=O)[C@@H](N)CCSC)[C@@H](C)O)C(=O)NCC(=O)N[C@@H](C)C(=O)N[C@@H](C)C(=O)N[C@@H](Cc1cnc[nH]1)C(=O)N[C@H](CC(N)=O)C(=O)NCC(=O)N[C@@H](CO)C(=O)N[C@@H](C)C(=O)N[C@@H](CCC(N)=O)C(=O)N[C@@H](CC(C)C)C(=O)N[C@@H](CC(C)C)C(=O)N[C@@H](CCCN=C(N)N)C(=O)N[C@@H](CCC(N)=O)C(=O)N[C@@H](CC(C)C)C(=O)N[C@@H](CCCN=C(N)N)C(=O)NCC(=O)N[C@@H](CCC(N)=O)C(=O)N[C@@H](CC(C)C)C(=O)NCC(=O)N1CCC[C@H]1C(=O)N1CCC[C@H]1C(=O)NCC(=O)N[C@@H](CO)C(=O)N[C@@H](CCCN=C(N)N)C(N)=O | 0.26 nM
CC[C@H](C)[C@H](NC(=O)[C@H](CC(C)C)NC(=O)[C@H](NC(=O)[C@@H](N)CCSC)[C@@H](C)O)C(=O)NCC(=O)N[C@@H](C)C(=O)N[C@@H](C)C(=O)N[C@@H](Cc1cnc[nH]1)C(=O)N[C@@H](CC(N)=O)C(=O)NCC(=O)N[C@@H](CO)C(=O)N[C@@H](C)C(=O)N[C@@H](CCC(N)=O)C(=O)N[C@@H](CC(C)C)C(=O)N[C@@H](CC(C)C)C(=O)N[C@@H](CCCN=C(N)N)C(=O)N[C@@H](CCC(N)=O)C(=O)N[C@@H](CC(C)C)C(=O)N[C@@H](CCCN=C(N)N)C(=O)NCC(=O)N[C@@H](CCC(N)=O)C(=O)N[C@@H](CC(C)C)C(=O)NCC(=O)N1CCC[C@H]1C(=O)N1CCC[C@H]1C(=O)NCC(=O)N[C@@H](CO)C(=O)N[C@@H](CCCN=C(N)N)C(N)=O | > 260 nM
CC[C@H](C)[C@H](NC(=O)[C@H](CC(C)C)NC(=O)[C@@H](NC(=O)[C@@H](N)CCSC)[C@@H](C)O)C(=O)NCC(=O)N[C@H](C)C(=O)N[C@@H](C)C(=O)N[C@@H](Cc1c[nH]cn1)C(=O)N[C@@H](CC(N)=O)C(=O)NCC(=O)N[C@@H](CO)C(=O)N[C@@H](C)C(=O)N[C@@H](CCC(N)=O)C(=O)N[C@@H](CC(C)C)C(=O)N[C@@H](CC(C)C)C(=O)N[C@@H](CCCN=C(N)N)C(=O)N[C@@H](CCC(N)=O)C(=O)N[C@@H](CC(C)C)C(=O)N[C@@H](CCCN=C(N)N)C(=O)NCC(=O)N[C@@H](CCC(N)=O)C(=O)N[C@@H](CC(C)C)C(=O)NCC(=O)N1CCC[C@H]1C(=O)N1CCC[C@H]1C(=O)NCC(=O)N[C@@H](CO)C(=O)N[C@@H](CCCN=C(N)N)C(N)=O | 14 nM
H-MTLIGAAHAGSAQLLRQLRGQLGPPGSR-NH2 | 2.3 nM
H-MTLIGAAHNGAAQLLRQLRGQLGPPGSR-NH2 | 1.6 nM
CC[C@H](C)[C@H](NC(=O)[C@H](CC(C)C)NC(=O)[C@@H](NC(=O)[C@@H](N)CCSC)[C@@H](C)O)C(=O)NCC(=O)N[C@@H](C)C(=O)N[C@@H](C)C(=O)N[C@@H](Cc1cnc[nH]1)C(=O)N[C@@H](CC(N)=O)C(=O)NCC(=O)N[C@@H](CO)C(=O)N[C@@H](C)C(=O)N[C@@H](CCC(N)=O)C(=O)N[C@@H](CC(C)C)C(=O)N[C@@H](CC(C)C)C(=O)N[C@@H](CCCN=C(N)N)C(=O)N[C@@H](CCC(N)=O)C(=O)N[C@H](CC(C)C)C(=O)N[C@@H](CCCN=C(N)N)C(=O)NCC(=O)N[C@@H](CCC(N)=O)C(=O)N[C@@H](CC(C)C)C(=O)NCC(=O)N1CCC[C@H]1C(=O)N1CCC[C@H]1C(=O)NCC(=O)N[C@@H](CO)C(=O)N[C@@H](CCCN=C(N)N)C(N)=O | 0.6 nM
CC[C@H](C)[C@H](NC(=O)[C@H](CC(C)C)NC(=O)[C@@H](NC(=O)[C@@H](N)CCSC)[C@@H](C)O)C(=O)NCC(=O)N[C@@H](C)C(=O)N[C@@H](C)C(=O)N[C@@H](Cc1cnc[nH]1)C(=O)N[C@@H](CC(N)=O)C(=O)NCC(=O)N[C@@H](CO)C(=O)N[C@@H](C)C(=O)N[C@@H](CCC(N)=O)C(=O)N[C@@H](CC(C)C)C(=O)N[C@@H](CC(C)C)C(=O)N[C@@H](CCCN=C(N)N)C(=O)N[C@@H](CCC(N)=O)C(=O)N[C@@H](C)C(=O)N[C@@H](CCCN=C(N)N)C(=O)NCC(=O)N[C@@H](CCC(N)=O)C(=O)N[C@@H](CC(C)C)C(=O)NCC(=O)N1CCC[C@H]1C(=O)N1CCC[C@H]1C(=O)NCC(=O)N[C@@H](CO)C(=O)N[C@@H](CCCN=C(N)N)C(N)=O | 0.066 nM
CC[C@H](C)[C@H](NC(=O)[C@H](CC(C)C)NC(=O)[C@@H](NC(=O)[C@@H](N)CCSC)[C@@H](C)O)C(=O)N[C@@H](C)C(=O)N[C@@H](C)C(=O)N[C@@H](C)C(=O)N[C@@H](Cc1cnc[nH]1)C(=O)N[C@@H](CC(N)=O)C(=O)NCC(=O)N[C@@H](CO)C(=O)N[C@@H](C)C(=O)N[C@@H](CCC(N)=O)C(=O)N[C@@H](CC(C)C)C(=O)N[C@@H](CC(C)C)C(=O)N[C@@H](CCCN=C(N)N)C(=O)N[C@@H](CCC(N)=O)C(=O)N[C@@H](CC(C)C)C(=O)N[C@@H](CCCN=C(N)N)C(=O)NCC(=O)N[C@@H](CCC(N)=O)C(=O)N[C@@H](CC(C)C)C(=O)NCC(=O)N1CCC[C@H]1C(=O)N1CCC[C@H]1C(=O)NCC(=O)N[C@@H](CO)C(=O)N[C@@H](CCCN=C(N)N)C(N)=O | 290 nM
H-MTLIGAAHNGSAQALRQLRGQLGPPGSR-NH2 | 2.2 nM
